Where “and” joins values, the source holds several entries; their conditions need not be identical. Equal entries are not always repeated. Where two headings read alike, the source gives them in different places.
How the values were obtained:
[1] = FRAP (ferric reducing antioxidant power) assay; conditions: 10 min incubation, vs sample containing solvent
Method: (§1) In order to determine the possible antioxidant properties, selected compounds were tested in 2,2-diphenyl-1-picrylhydrazyl (DPPH) and ferric reducing antioxidant power (FRAP) assay with ascorbic acid as a reference compound (Table 2). For details, please refer to the Materials and Methods Section. Graphical representation of tests results can be found in Supplementary Material.
(§2) Antioxidant properties of compounds were tested in vitro in two different assays: the 2,2-diphenyl-1-picrylhydrazyl (DPPH) assay and the FeCl3 reduction activity assay (FRAP, ferric reducing antioxidant power). The tested compounds and ascorbic acid were dissolved in DMSO at the 10^−2 mol/L concentration, and in ethanol at the concentration of 10^−4 mol/L respectively. Moreover, 30% and 50% ascorbic acid activity cut-off for DPPH and FRAP assays respectively were set ad hoc.
A modified method of Benzie and Strain [38] was adopted for the FRAP assay. The stock solutions included 300 mM acetate buffer (3.1 g of C2H3NaO2 × 3H2O and 16 mL of C2H4O2), pH 3.6, 10 mM TPTZ (2,4,6-tripyridyl-s-triazine) solution in 40 mM HCl, and 20 mM FeCl3 × 6H2O solution. The working solution was prepared by mixing 10 parts of acetate buffer, 1 part of TPTZ solution, and 1 part of FeCl3 × 6H2O solution. A portion of 180 μL of the FRAP solution was mixed with 20 μL of the tested compound solution and incubated at room temperature for 10 min in the dark. Readings of the color product (ferrous tripyridyl triazine complex) were then taken at 593 nm against ethanol. Results are expressed as an increase in absorbance of the test sample compared to a sample containing the solvent. L-ascorbic acid was used as reference compound.

[2] = DPPH free radical scavenging assay; conditions: for DPPH Assay (λ = 517 nm) Absorbance Decrease in 10^−4 mol/L Concentration [%] Mean ± SEM: 30 min incubation, vs solvent + reaction mixture blank
Method: as §1, §2
DPPH is a molecule containing a stable free radical. The reduction of DPPH (purple) in ethanol solution takes place in the presence of a hydrogen-donating antioxidant due to the formation of the non-radical form of DPPH-H (yellow). This transformation results in color change from purple to yellow, which can be measured spectrophotometrically. Thus, the decrease in absorbance is proportional to the decrease in concentration of DPPH (free radical) and discoloration of reaction mixture indicates the scavenging of free radicals by a tested antioxidant.
In order to determine antioxidant capacity, 20 μL of the compound solutions (dissolved in 96% ethanol) was mixed with 180 μL of 0.3 mM ethanolic DPPH solution. The change in the absorbance was detected at 517 nm after 30 min of incubation. Results were expressed as percentage decrease in absorbance of the tested sample, compared to the sample containing the solvent + reaction mixture (blank with maximum concentration of the DPPH radical). L-ascorbic acid was used as a reference compound. Calculations were made using MS Excel, from the proportion where the change of absorbance in the vitamin C (vit. C) group was treated as 100%, according to Equation (1):(1) % activity of Vit.C=ΔAb×100/ΔAVit. C
Calculation of % Vit. C activity: ΔAb -the change in the absorbance of the test sample and ΔAVit. C is change in the absorbance of reference sample, or with vit. C.

[3] = biological target: T1, human recombinant histamine H3R stably expressed in HEK-293 cells (Homo sapiens, UniProt Q9Y5N1); experiment: [3H]Nα-methylhistamine hH3R displacement (radioligand depletion) binding assay; conditions: mean [95% confidence interval]
T1 construct: HEK-293 cells stably expressing the recombinant full length hH3R; expressed in transfected cells; crude membrane preparations
T1 sequence (Q9Y5N1 whole entry): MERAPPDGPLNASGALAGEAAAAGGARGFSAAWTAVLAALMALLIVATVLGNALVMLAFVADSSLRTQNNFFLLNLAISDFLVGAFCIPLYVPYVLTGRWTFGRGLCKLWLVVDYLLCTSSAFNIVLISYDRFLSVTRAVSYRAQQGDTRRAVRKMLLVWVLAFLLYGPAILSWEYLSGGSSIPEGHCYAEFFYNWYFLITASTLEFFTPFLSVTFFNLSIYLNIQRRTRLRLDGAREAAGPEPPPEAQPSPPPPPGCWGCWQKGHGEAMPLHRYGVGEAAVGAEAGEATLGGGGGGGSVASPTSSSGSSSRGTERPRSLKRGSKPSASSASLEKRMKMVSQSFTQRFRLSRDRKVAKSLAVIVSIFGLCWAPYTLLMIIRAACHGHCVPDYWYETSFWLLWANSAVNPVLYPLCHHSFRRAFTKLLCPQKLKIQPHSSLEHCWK
Excerpt: Unbound radioligand was removed by three washing steps with ice-cold water.

hH3R = conditions: reference ligands, Figure 1; cited from earlier work
hBuChE = conditions: Figure 1; cited from earlier work
rσ2R = conditions: Figure 1; cited from earlier work
rVAChT = conditions: Figure 1; cited from earlier work
hσ1R = conditions: Figure 1; cited from earlier work
rH3R = conditions: Figure 1; cited from earlier work
[4] = biological target: T1, human recombinant histamine H3R stably expressed in HEK-293 cells; design: method as in PMID 21237145, PMID 29960729; conditions: radioligand of the binding assay; read-out: KD of the radioligand at hH3R; cited from earlier work
[5] = [3H]Nα-methylhistamine displacement, HEK-293 membranes, read-out: hH3R Ki [nM] x¯ [CI 95%]
[6] = hH3R Ki [nM] x¯ [CI 95%], [3H]Nα-methylhistamine displacement, HEK-293 membranes
[7] = hH3R Ki [nM] x¯ [CI 95%], values obtained using 0.025% HCl in binding buffer

Compound	FRAP Assay (λ = 593 nm) Absorbance Increase in 10^−4 mol/L Concentration [%] Mean ± SEM [1]	DPPH Assay (λ = 517 nm) Absorbance Decrease in 10^−4 mol/L Concentration [%] Mean ± SEM [2]	Ki [3, 5]	melting point	Ki [3, 6]	further results
CC(=O)c1ccc(N2CCN(CCCOc3ccc(C(=O)c4ccccc4)cc3)CC2)cc1 [Compound 10, 1-(4-(4-(3-(4-Benzoylphenoxy)propyl)piperazin-1-yl)phenyl)ethan-1-one]	3.66 ± 0.59%	2.44 ± 0.97%	633 nM	148.4 to 151.4 °C	–	–
O=C(O)C(=O)O.O=C(c1ccc(F)cc1)c1ccc(OCCCN2CCN(C(=O)C3CC3)CC2)cc1 [Compound 9, (4-(3-(4-(Cyclopropanecarbonyl)piperazin-1-yl)propoxy)phenyl)(4-fluorophenyl)methanone hydrogen oxalate]	1.75 ± 0.22%	7.70 ± 0.41%	–	181.1 to 182.7 °C	1670 nM	–
O=C(O)C(=O)O.O=C(c1ccc(Cl)cc1)c1ccc(OCCCN2CCN(C(=O)C3CC3)CC2)cc1 [Compound 8, (4-(3-(4-(4-Chlorobenzoyl)phenoxy)propyl)piperazin-1-yl)(cyclopropyl)methanone hydrogen oxalate]	0.48 ± 0.48%	6.79 ± 0.51%	–	176.9 to 179.2 °C	> 1000 nM	–
CC(=O)N1CCN(CCCOc2ccc(C(=O)c3ccc(Cl)cc3)cc2)CC1 [Compound 5, 1-(4-(3-(4-(4-Chlorobenzoyl)phenoxy)propyl)piperazin-1-yl)ethan-1-one]	–	–	1260 nM	–	–	–
COc1cccc(N2CCN(CCCOc3ccc(C(=O)c4ccccc4)cc3)CC2)c1.O=C(O)C(=O)O [Compound 16, (4-(3-(4-(3-Methoxyphenyl)piperazin-1-yl)propoxy)phenyl)(phenyl)methanone hydrogen oxalate]	32.91 ± 0.81%	12.37 ± 1.31%	–	143.6 to 146.1 °C	–	DPPH assay: % of ascorbic acid activity ([2]; compound 10^−4 mol/L vs ascorbic acid 10^−4 mol/L, calculated from Table 2): 60.28% and 50–60%; Ki [3, 7]: 592 nM
O=C(c1ccc(F)cc1)c1ccc(OCCCN2CCN(c3ccc([N+](=O)[O-])cc3)CC2)cc1 [Compound 15, (4-Fluorophenyl)(4-(3-(4-(4-nitrophenyl)piperazin-1-yl)propoxy)phenyl)methanone]	–	–	580 nM	173.3 to 174.2 °C	–	–
CC(=O)N1CCN(CCCOc2ccc(C(=O)c3ccccc3)cc2)CC1.O=C(O)C(=O)O [Compound 4, 1-(4-(3-(4-Benzoylphenoxy)propyl)piperazin-1-yl)ethan-1-one hydrogen oxalate]	–	–	–	136.8 to 140 °C	3650 nM	–
Cn1nc(N2CCC(OC(=O)N3CCN(C4CCC4)CC3)CC2)ccc1=O [LML134]	–	–	–	–	–	Ki (hH3R): 12 nM
O=C1O[C@H]([C@@H](O)CO)C(O)=C1O [Ascorbic acid, L-ascorbic acid, reference compound]	344.20 ± 4.65%	20.52 ± 0.51%	–	–	–	–
C#CCN(C)Cc1cc2cc(OCCCN3CCCCC3)ccc2n1C [Contilisant]	–	–	–	–	–	IC50 (hBuChE): 1690 nM; Ki (hH3R): 10.8 nM; Ki (rσ2R): 326 nM; Ki (rVAChT): 46.3 nM; Ki (hσ1R): 65.2 nM
O=C(c1ccc(Cl)cc1)c1ccc(OCCCN2CCN(c3ccc([N+](=O)[O-])cc3)CC2)cc1 [Compound 14, (4-Chlorophenyl)(4-(3-(4-(4-nitrophenyl)piperazin-1-yl)propoxy)phenyl)methanone]	0.22 ± 0.16%	6.31 ± 1.14%	622 nM	154.5 to 155.8 °C	–	–
CC(=O)c1ccc(N2CCN(CCCOc3ccc(C(=O)c4ccc(F)cc4)cc3)CC2)cc1 [Compound 12, 1-(4-(4-(3-(4-(4-Fluorobenzoyl)phenoxy)propyl)piperazin-1-yl)phenyl)ethan-1-one]	2.70 ± 1.15%	4.42 ± 0.33%	1010 nM	162 to 163.6 °C	–	–
Clc1ccc(CCCOCCCN2CCCCC2)cc1 [Pitolisant, pitolisant]	–	–	–	–	–	Ki (rH3R): 17 nM
O=C(c1ccccc1)c1ccc(OCCCN2CCN(c3ccc([N+](=O)[O-])cc3)CC2)cc1 [Compound 13, (4-(3-(4-(4-Nitrophenyl)piperazin-1-yl)propoxy)phenyl)(phenyl)methanone]	–	–	> 1000 nM	182.3 to 183.9 °C	–	–
CC(=O)c1ccc(N2CCN(CCCOc3ccc(C(=O)c4ccc(Cl)cc4)cc3)CC2)cc1 [Compound 11, 1-(4-(4-(3-(4-(4-Chlorobenzoyl)phenoxy)propyl)piperazin-1-yl)phenyl)ethan-1-one]	3.34 ± 0.22%	3.33 ± 0.45%	> 1000 nM	180.6 to 183.4 °C	–	–
COc1cccc(N2CCN(CCCOc3ccc(C(=O)c4ccc(Cl)cc4)cc3)CC2)c1.O=C(O)C(=O)O [Compound 17, (4-Chlorophenyl)(4-(3-(4-(3-methoxyphenyl)piperazin-1-yl)propoxy)phenyl)methanone hydrogen oxalate]	40.86 ± 0.98%	4.88 ± 0.18%	–	100.2 to 102.4 °C	–	Ki [3, 7]: 518 nM and ~500 nM
O=C(O)C(=O)O.O=C(c1ccccc1)c1ccc(OCCCN2CCN(C(=O)C3CC3)CC2)cc1 [Compound 7, (4-(3-(4-Benzoylphenoxy)propyl)piperazin-1-yl)(cyclopropyl)methanone hydrogen oxalate]	1.43 ± 0.32%	6.23 ± 0.53%	–	167.3 to 168.6 °C	1330 nM	–
CNCCc1cnc[nH]1 [[^3H]N^α-methylhistamine]	–	–	–	–	–	Kd [4]: 3.08 nM
CC(=O)N1CCN(CCCOc2ccc(C(=O)c3ccc(F)cc3)cc2)CC1.O=C(O)C(=O)O [Compound 6, 1-(4-(3-(4-(4-Fluorobenzoyl)phenoxy)propyl)piperazin-1-yl)ethan-1-one hydrogen oxalate]	0.79 ± 0.39%	8.82 ± 0.12%	–	171.3 to 173.1 °C	1100 nM	–
COc1cccc(N2CCN(CCCOc3ccc(C(=O)c4ccc(F)cc4)cc3)CC2)c1.O=C(O)C(=O)O [Compound 18, (4-Fluorophenyl)(4-(3-(4-(3-methoxyphenyl)piperazin-1-yl)propoxy)phenyl)methanone hydrogen oxalate]	29.73 ± 0.39%	6.35 ± 0.55%	–	127.4 to 129.7 °C	715 nM	–

Reference: article PMC8071534, “Discovery of Potential, Dual-Active Histamine H3 Receptor Ligands with Combined Antioxidant Properties” (Molecules, 2021)
